The record followed here is ChEMBL document CHEMBL1201862, “PubChem BioAssay data set” (2004).

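Results reflect a 48-hour exposure of cells in 96-well plates to compound at five concentrations. Here, GI50 denotes the concentration required for 50% inhibition of growth.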 The source made the active and inactive calls. Rule as the data show it: active = GI50 up to about 1.1 µM and inactive = higher.

Test in all cases: inhibition of tumour cell growth, NCI panel, 48 h
The subject of test [1] is SNB-78.
Test [2] deals with DLD-1.
Test [3] concerns IGROV-1.
Test [4] concerns NCI-H226.
The test system of test [5] is SW-620.
Test [6] relates to A549.
The test system of test [7] is SF-539.
Test [8] relates to DMS-273.
Test [9] relates to RXF 393.
In test [10] the test system is HOP-92.
The subject of test [11] is HL-60.
The test system of test [12] is NCI-H522.
Test [13] relates to SK-OV-3.
Test [14] relates to HCT-15.
For test [15], the system named is COLO 205.
The subject of test [16] is SF-268.
The test system of test [17] is EKVX.
For test [18], the system named is M19-MEL.
In test [19] the test system is SK-MEL-28.

For `Fc1ccc(F)c(C2SCc3nc4ccccc4n32)c1` (configuration not stated), the GI50 in test [1] is 52.5 µM (inactive); in test [2], > 100 µM (inactive); in test [3], > 100 µM (inactive); in test [4], > 100 µM (inactive); in [5], > 100 µM (inactive); in [6], 71.4 µM (inactive). Moreover, the GI50 in test [7] is > 100 µM (inactive); in [8], 20.5 µM (inactive); in [9], 67.6 µM (inactive); in [10], 28.5 µM (inactive); in [11] it was 20.1 µM (inactive); in test [12], 36.1 µM (inactive). The GI50 was > 100 µM (inactive) in [13]; 71.1 µM in [14]; > 100 µM (inactive) in [15]; 66.4 µM (inactive) in test [16]; 57.9 µM (inactive) in test [17]; 48.2 µM (inactive) in test [18].
Regarding `CC(=O)C1=C(O)C(N)C2Cc3c(c(O)c4c(O)c(C)ccc4c3C)C(=O)C2(O)C1=O` (configuration not stated), the GI50 in test [1] is 2.17 µM (inactive); in test [2], 2 µM (inactive); in test [3] it was 2.96 µM (inactive); in test [4] it was 1.56 µM (inactive); in [5], 2.79 µM (inactive); in test [6], 1.61 µM (inactive). Besides, the GI50 was 1.35 µM (inactive) in [7]; 1.73 µM (inactive) in [8]; 4.43 µM (inactive) in [9]; 1.6 µM (inactive) in test [10]; 2.23 µM (inactive) in [11]; 2.06 µM (inactive) in test [19]. The GI50 in test [12] was 3.98 µM (inactive); in test [13] it was 3.53 µM (inactive); in test [14], 0.774 µM; in test [15] it was 1.64 µM (inactive); in test [16], 1.18 µM (inactive); in [17], 1.89 µM (inactive). In addition, in [18], the GI50 is 2.48 µM (inactive).
Take `CC(C)C1CC(O)O[C@@H]([C@@H](C)[C@H]2CC(=O)[C@@H]3[C@@H]4[C@@H](O)[C@H](O)[C@H]5[C@@H](O)[C@H](O)CC[C@]5(C)[C@H]4CC[C@]23C)C1` (some centres not stated): the GI50 is 38.9 µM (inactive) in test [1]; > 100 µM (inactive) in test [2]; 24.5 µM (inactive) in test [3]; > 100 µM (inactive) in test [4]; > 100 µM (inactive) in test [5]; 53.1 µM (inactive) in [6]. The GI50 in test [7] is > 100 µM (inactive); in test [8], 39.8 µM (inactive); in test [9], 13.3 µM (inactive); in test [10] it was 22.2 µM (inactive); in test [11] it was > 100 µM (inactive); in [19], > 100 µM (inactive). Besides, the GI50 in [12] is 70.1 µM (inactive); in [13] it was 34.5 µM (inactive); in test [14], over 100 µM; in test [15], > 100 µM (inactive); in [16] it was 39.9 µM (inactive); in test [17] it was 66.1 µM (inactive). Moreover, the GI50 in test [18] was 37.1 µM (inactive).
As to `O=S(=O)(O)c1ccc([Se][Se]c2ccc(S(=O)(=O)O)cc2)cc1`, the GI50 in test [1], in test [2], in test [3], in test [4], in test [5] and in test [6] was > 100 µM (inactive) each time. For the same molecule, the GI50 in [7] was > 100 µM (inactive); in [8], 76.7 µM (inactive); in test [9], > 100 µM (inactive); in test [10] it was > 100 µM (inactive); in test [11] it was > 100 µM (inactive); in test [19], > 100 µM (inactive). Moreover, the GI50 in test [12] is 60.5 µM (inactive); in test [13] it was > 100 µM (inactive); in test [14], over 100 µM; in [15], > 100 µM (inactive); in test [16], > 100 µM (inactive); in test [17] it was > 100 µM (inactive). Besides, the GI50 in test [18] is > 100 µM (inactive).
Take `Cc1cc(C)nc(NS(=O)(=O)c2ccc(NC(=O)c3cccc4c(Nc5ccc(S(=O)(=O)Nc6nc(C)cc(C)n6)cc5)c5ccccc5nc34)cc2)n1`: the GI50 in test [1] is 39.6 µM (inactive); in [2], 19 µM (inactive); in test [3], 32.8 µM (inactive); in [5] it was 28.1 µM (inactive); in test [6], 25.8 µM (inactive); in [7] it was 15.4 µM (inactive). The GI50 in test [8] was 17.9 µM (inactive); in [9], 14.7 µM (inactive); in test [10], 18.9 µM (inactive); in [11], 18.1 µM (inactive); in [19] it was 14.6 µM (inactive); in test [12], 13.2 µM (inactive). In addition, the GI50 in [13] is 26 µM (inactive); in test [14], 21.6 µM; in test [15], 22.9 µM (inactive); in test [16], 12.9 µM (inactive); in [17] it was 24.2 µM (inactive); in test [18] it was 29.5 µM (inactive).
Take `Fc1ccc(/N=C2C=C/C(=N\c3ccc(F)cc3)c3ccccc3\2)cc1`: the GI50 in test [1] is > 100 µM (inactive); in test [2], > 100 µM (inactive); in [3], > 100 µM (inactive); in [4], 77.4 µM (inactive); in test [5], > 100 µM (inactive); in test [6] it was > 100 µM (inactive). The GI50 is 54.1 µM (inactive) in test [7]; > 100 µM (inactive) in [8]; 92.3 µM (inactive) in [9]; 19.4 µM (inactive) in [10]; > 100 µM (inactive) in [11]; > 100 µM (inactive) in test [19]. Also, the GI50 was > 100 µM (inactive) in test [12]; > 100 µM (inactive) in [13]; over 100 µM in test [14]; > 100 µM (inactive) in [15]; 40.2 µM (inactive) in test [16]; 33.9 µM (inactive) in test [17]. Also, the GI50 in test [18] is > 100 µM (inactive).
Regarding `O=C1NC(=O)C2C(=O)NC(=O)C1C2Cc1ccco1` (configuration not stated), the GI50 in test [1], in [2], in [3], in test [4], in test [5] and in [6] was > 100 µM (inactive) in each case. Further, the GI50 in [7], in test [8], in [9], in test [10], in test [11] and in test [19] was > 100 µM (inactive) throughout. The GI50 in test [12] is > 100 µM (inactive); in [13] it was > 100 µM (inactive); in test [14], over 100 µM; in [15], > 100 µM (inactive); in test [16], > 100 µM (inactive); in test [17], > 100 µM (inactive). Moreover, the GI50 in test [18] is > 100 µM (inactive).
Consider `NNc1cnn(-c2ccccc2)c(=O)c1Cl`, for which the GI50 in test [1], in [2], in test [3], in [4], in test [5] and in [6] was > 100 µM (inactive) throughout. Besides, the GI50 in test [7], in [8], in test [9], in [10], in test [11] and in test [19] was > 100 µM (inactive) each time. Also, the GI50 in [12] was > 100 µM (inactive); in test [13] it was > 100 µM (inactive); in test [14], over 100 µM; in [15] it was > 100 µM (inactive); in [16] it was > 100 µM (inactive); in test [18], > 100 µM (inactive).
Consider `Nc1cn(C2OC(CC(c3ccccc3)(c3ccccc3)c3ccccc3)C(O)C2O)c(=O)[nH]c1=O` (configuration not stated), for which the GI50 in test [1] was 67.9 µM (inactive); in test [2], 24.5 µM (inactive); in test [3] it was 23.9 µM (inactive); in test [4], 73.8 µM (inactive); in [5], 14.8 µM (inactive); in test [6], 23 µM (inactive). For the same molecule, the GI50 in test [8] was 33.3 µM (inactive); in [9], 6.64 µM (inactive); in test [10] it was 12.7 µM (inactive); in test [11], 17.3 µM (inactive); in test [19], 29.3 µM (inactive); in test [12] it was 19.2 µM (inactive). Moreover, the GI50 in test [13] is 34.7 µM (inactive); in test [14] it was 17.8 µM; in test [15], 16.6 µM (inactive); in test [16], 34.7 µM (inactive); in [17] it was 33.7 µM (inactive); in test [18], 18.4 µM (inactive).
Consider `N#CCCN(CCC#N)C(=O)c1cccc(C(=O)N(CCC#N)CCC#N)c1`, for which the GI50 in [1] was > 100 µM (inactive); in test [2], > 88.9 µM (inactive); in test [3], > 100 µM (inactive); in test [5] it was 13.4 µM (inactive); in test [6], > 69.7 µM (inactive); in test [7], > 40.9 µM (inactive). Also, the GI50 was > 100 µM (inactive) in [8]; 4.07 µM (inactive) in test [9]; > 58.7 µM (inactive) in [10]; > 55.2 µM (inactive) in test [11]; 7.45 µM (inactive) in test [19]; > 100 µM (inactive) in test [12]. The GI50 in test [13] was > 100 µM (inactive); in test [14] it was over 100 µM; in [15], > 70.5 µM (inactive); in test [16], > 100 µM (inactive); in test [17] it was > 46.2 µM (inactive); in test [18], > 100 µM (inactive).
Regarding `O=C(O)C(Cc1ccccc1)N1C(=O)N/C(=C\c2ccc(F)cc2)C1=O` (configuration not stated), the GI50 is 18.4 µM (inactive) in test [1]; > 100 µM (inactive) in [2]; > 100 µM (inactive) in test [3]; > 100 µM (inactive) in test [4]; > 100 µM (inactive) in [5]; > 100 µM (inactive) in [6]. Besides, the GI50 in test [7], in test [8], in test [9], in [10], in [11] and in test [12] was > 100 µM (inactive) throughout. Also, the GI50 in [13] is > 100 µM (inactive); in [14], over 100 µM; in [15], > 100 µM (inactive); in test [17] it was > 100 µM (inactive); in test [18], > 100 µM (inactive).
